Where a name gives a salt, the structure may show the parent alone.
Assays:
SOS1 = molecular target: T1, SOS1 (Homo sapiens, UniProt Q07889); assay: biochemical
T1 sequence (Q07889 1-1333): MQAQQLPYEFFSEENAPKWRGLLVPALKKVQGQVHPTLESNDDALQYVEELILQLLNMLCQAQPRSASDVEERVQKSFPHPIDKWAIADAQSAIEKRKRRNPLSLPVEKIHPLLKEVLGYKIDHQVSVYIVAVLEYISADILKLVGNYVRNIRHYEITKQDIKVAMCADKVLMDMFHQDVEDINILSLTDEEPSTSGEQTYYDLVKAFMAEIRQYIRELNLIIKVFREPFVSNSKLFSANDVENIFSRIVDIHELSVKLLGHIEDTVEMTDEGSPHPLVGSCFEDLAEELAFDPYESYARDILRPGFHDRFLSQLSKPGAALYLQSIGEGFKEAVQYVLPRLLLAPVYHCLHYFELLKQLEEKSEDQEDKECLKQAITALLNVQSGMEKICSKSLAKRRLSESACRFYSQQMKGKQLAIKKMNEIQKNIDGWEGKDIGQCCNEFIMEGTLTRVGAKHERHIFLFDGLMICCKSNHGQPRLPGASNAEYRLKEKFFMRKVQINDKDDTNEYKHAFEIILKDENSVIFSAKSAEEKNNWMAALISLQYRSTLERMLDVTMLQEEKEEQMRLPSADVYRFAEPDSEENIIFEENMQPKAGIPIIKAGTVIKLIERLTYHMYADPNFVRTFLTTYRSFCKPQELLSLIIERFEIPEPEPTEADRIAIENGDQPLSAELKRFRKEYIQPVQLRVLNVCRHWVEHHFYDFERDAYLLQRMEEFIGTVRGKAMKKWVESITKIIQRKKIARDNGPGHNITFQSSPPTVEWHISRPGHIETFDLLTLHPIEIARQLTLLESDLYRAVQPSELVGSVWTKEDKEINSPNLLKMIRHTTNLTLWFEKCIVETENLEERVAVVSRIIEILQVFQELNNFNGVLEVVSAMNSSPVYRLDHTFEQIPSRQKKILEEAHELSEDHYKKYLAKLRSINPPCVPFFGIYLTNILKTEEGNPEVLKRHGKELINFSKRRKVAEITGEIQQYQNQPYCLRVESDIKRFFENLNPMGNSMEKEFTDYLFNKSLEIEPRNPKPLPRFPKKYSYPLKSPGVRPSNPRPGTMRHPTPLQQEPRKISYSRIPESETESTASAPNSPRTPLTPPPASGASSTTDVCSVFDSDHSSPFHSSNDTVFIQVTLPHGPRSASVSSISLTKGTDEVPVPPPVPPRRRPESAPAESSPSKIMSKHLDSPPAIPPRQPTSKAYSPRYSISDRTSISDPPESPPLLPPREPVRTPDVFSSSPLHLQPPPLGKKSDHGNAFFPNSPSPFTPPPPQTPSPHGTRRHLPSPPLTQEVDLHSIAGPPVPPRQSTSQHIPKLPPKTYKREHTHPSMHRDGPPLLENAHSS

[1] = system: NCI-H358 non-small cell lung cancer cells; assay: Inhibition of NCI-H358 cell proliferation (CellTiter-Glo 3D, 7 days); format: cell-based; details: Homo sapiens, NCI-H358, 168 h, 3D microspheres, read-out: Inhibitory activity against NCI-H358 cell proliferation (IC50)
Method: The number of viable cells were detected by CellTiter-Glo 3D® reagent, thereby evaluating the inhibitory effect of compounds on cell proliferation. NCI-H358 non-small cell lung cancer cells (Nanjing cobioer) in the exponential growth phase were digested with trypsin-EDTA, and seeded into 96-well ultra-low attachment microplates at 100 µL per well with a density of 2000 cells/well. The cells were cultured overnight at 37°C with 5% CO2 to form microspheres. The test compounds were serially diluted 5-fold with DMSO to obtain 8 concentration gradient dilutions, then diluted with RPMI-1640 (10% FBS) cell culture medium respectively to obtain compound working solutions (2×). 100 µL per well was added to the cell supernatant, and the culture was continued for 7 days under the conditions of 37°C and 5% CO2. The well plate was removed, and 100 µL of CellTiter-Glo 3D® reagent was added. After lysis at room temperature for 10-30 minutes, 70 µL of the lysate was aspirated and transferred to a white opaque 384-well plate.
The inhibition rate was calculated by the following formula: [formula] Note: The negative control refers to the group without inhibitor, and the blank refers to the group without cells.
The inhibitory activities of some Example compounds and comparative compounds against NCI-H358 cell proliferation are shown in Table 2. Table 2. Inhibitory activity of some Example compounds against NCI-H358 cell proliferation

Row | SMILES | IC50 (SOS1) [µM] | IC50 [1] [µM]
1 | C[C@@H](Nc1nnc(N2CCN(C)CC2)c2cc(=O)n(N3CCN(C)CC3)cc12)c1cccc(C(F)F)c1F [Example 151, (R)-4-((1-(3-(difluoromethyl)-2-fluorophenyl)ethyl)amino)-1,6-bis(4-methylpiperazin-1-yl)pyrido[3,4-d]pyridazin-7(6H)-one] | 0.0038 | 0.0394
2 | C[C@@H](Nc1nnc(N2CCN(C)C[C@@H]2C)c2cc(=O)n(C3(C)CC3)cc12)c1cccc(C(F)F)c1F [Example 195, 4-(((R)-1-(3-(difluoromethyl)-2-fluorophenyl)ethyl)amino)-1-((S)-2,4-dimethylpiperazin-1-yl)-6-(1-methylcyclopropyl) pyrido[3,4-d]pyridazin-7(6H)-one] | 0.0037 | 0.0256
3 | Cc1c([C@@H](C)Nc2nnc(N3CCN(C)CC3)c3cc(=O)n(C4(C)CC4)cc23)cccc1C(F)(F)F [Example 81, (R)-4-((1-(2-methyl-3-(trifluoromethyl)phenyl)ethyl)amino)-6-(1-methylcyclopropyl)-1-(4-methylpiperazin-1-yl)pyrido[3,4-d]pyridazin-7(6H)-one] | 0.0063 | 0.0653
4 | C[C@@H](Nc1nnc(N2CCN(C)CC2)c2cc(=O)n(C3(C)CC3)cc12)c1cccc(C(F)(F)F)c1 [Example 157, (R)-1-(4-methylpiperazin-1-yl)-6-(1-methylcyclopropyl)-4-((1-(3-(trifluoromethyl)phenyl)ethyl)amino)pyr ido[3,4-d]pyridazin-7(6H)-one formate] | 0.0051 | 0.0522
5 | Cc1c([C@@H](C)Nc2nnc(N3CCCC3)c3cc(=O)n(C4CC4)cc23)cccc1C(F)(F)F [Example 49, (R)-6-cyclopropyl-4-((1-(2-methyl-3-(trifluoromethyl)phenyl)ethyl)amino)-1-(pyrrolidin-1-yl) pyrido[3,4-d]pyridazin-7(6H)-one] | 0.006 | 0.0551
6 | Cc1c([C@@H](C)Nc2nnc(N3CCCC3)c3cc(=O)n(C4(C)CC4)cc23)cccc1C(F)(F)F [Example 61, (R)-4-((1-(2-methyl-3-(trifluoromethyl)phenyl)ethyl)amino)-6-(1-methylcyclopropyl)-1-(pyrrolidin-1-yl)pyrido[3,4-d]pyridazin-7(6H)-one] | 0.0061 | 0.0318
7 | C[C@@H](Nc1nnc(NC2CCOC2)c2cc(=O)n(C3(C)CC3)cc12)c1cccc(C(F)F)c1F (stereo partly drawn) [Example 119, 4-(((R)-1-(3-(difluoromethyl)-2-fluorophenyl)ethyl)amino)-6-(1-methylcyclopropyl)-1-((tetrahydrofuran-3-yl)amino)pyrido[3,4-d]pyridazin-7(6H)-one formate] | 0.0043 | 0.0591
8 | C[C@@H](Nc1nnc(N2CCCC2)c2cc(=O)n(C3(C)CC3)cc12)c1cccc(C(F)F)c1F [Example 5, (R)-4-((1-(3-(difluoromethyl)-2-fluorophenyl)ethyl)amino)-6-(1-methylcyclopropyl)-1-(pyrrolidin-1-yl)pyrido[3,4-d]pyridazin-7(6H)-one] | 0.0047 | 0.0501
9 | Cc1nnc(N[C@H](C)c2cccc(C(F)(F)F)c2)c2cn(C3(C)CC3)c(=O)cc12 [comparative compound2, (R)-1-methyl-6-(1-methylcyclopropyl)-4-((1-(3-(trifluoromethyl)phenyl)ethyl)amino)pyrido[3,4-d]pyridazin-7(6H)-one hydrochloride, reference compound] | – | 0.377
10 | CCNc1nnc(N[C@H](C)c2cccc(C(F)F)c2F)c2cn(C3(C)CC3)c(=O)cc12 [Example 105, (R)-4-((1-(3-(difluoromethyl)-2-fluorophenyl)ethyl)amino)-1-(ethylamino)-6-(1-methylcyclopropyl) pyrido[3,4-d]pyridazin-7(6H)-one] | 0.0047 | 0.0581
11 | C[C@@H](Nc1nnc(N2CCN(C)CC2)c2cc(=O)n(C3(C)CC3)cc12)c1cccc(C(F)(F)F)c1F [Example 164, (R)-4-((1-(2-fluoro-3-(trifluoromethyl)phenyl)ethyl)amino)-6-(1-methylcyclopropyl)-1-(4-methylpiperazin-1-yl)pyrido[3,4-d]pyridazin-7(6H)-one] | 0.0042 | 0.0328
12 | CCN1CCN(c2nnc(N[C@H](C)c3cccc(C(F)(F)F)c3)c3cn(C4(C)CC4)c(=O)cc23)CC1 [Example 156, (R)-1-(4-ethylpiperazin-1-yl)-6-(1-methylcyclopropyl)-4-((1-(3-(trifluoromethyl)phenyl)ethyl)amino)pyr ido[3,4-d]pyridazin-7(6H)-one formate] | 0.0054 | 0.0474
13 | C[C@@H](Nc1nnc(N2CC3(CCC3)C2)c2cc(=O)n(C3(C)CC3)cc12)c1cccc(C(F)F)c1F [Example 191, (R)-4-((1-(3-(difluoromethyl)-2-fluorophenyl)ethyl)amino)-6-(1-methylcyclopropyl)-1-(2-azaspiro[3.3]heptan-2-yl)pyrido[3,4-d]pyridazin-7(6H)-one] | 0.0045 | 0.0393
14 | CCN1CCN(c2nnc(N[C@H](C)c3cccc(C(F)(F)F)c3F)c3cn(C4(C)CC4)c(=O)cc23)CC1 [Example 168, (R)-1-(4-ethylpiperazin-1-yl)-4-((1-(2-fluoro-3-(trifluoromethyl)phenyl)ethyl)amino)-6-(1-methylcyclopropyl) pyrido[3,4-d]pyridazin-7(6H)-one formate] | 0.0041 | 0.0355
15 | C[C@@H](Nc1nnc(N2CCN3CCCC3C2)c2cc(=O)n(C3(C)CC3)cc12)c1cccc(C(F)F)c1F (stereo partly drawn) [Example 192, 4-(((R)-1-(3-(difluoromethyl)-2-fluorophenyl)ethyl)amino)-1-(hexahydropyrrolo[1,2-a]pyrazin-2(1H)-yl)-6-(1-methylcyclopropyl) pyrido[3,4-d]pyridazin-7(6H)-one] | 0.0038 | 0.0288
16 | CCN1CCN(c2nnc(N[C@H](C)c3cccc(C(F)(F)CO)c3)c3cn(C4(C)CC4)c(=O)cc23)CC1 [Example 227, (R)-4-((1-(3-(1,1-difluoro-2-hydroxyethyl)phenyl)ethyl)amino)-1-(4-ethylpiperazin-1-yl)-6-(1-methylcyclopropyl) pyrido[3,4-d]pyridazin-7(6H)-one] | 0.0038 | 0.0482
17 | C[C@@H](Nc1nnc(N2CCC2)c2cc(=O)n(C3(C)CC3)cc12)c1cccc(C(F)F)c1F [Example 16, (R)-1-(azetidin-1-yl)-4-((1-(3-(difluoromethyl)-2-fluorophenyl)ethyl)amino)-6-(1-methylcyclopropyl) pyrido[3,4-d]pyridazin-7(6H)-one formate] | 0.0041 | 0.0578
18 | Cc1c([C@@H](C)Nc2nnc(C)c3cc(=O)n(C4(C)CC4)cc23)cccc1C(F)(F)F [comparative compound 1, (R)-1-methyl-4-((1-(2-methyl-3-(trifluoromethyl)phenyl)ethyl)amino)-6-(1-methylcyclopropyl) pyrido[3,4-d]pyridazin-7(6H)-one, reference compound] | – | 0.282
